Active and inactive are the calls of the source. The calls are words filed in the database; no cut-off is given here.
Molecular target: T1, Endochitinase A1 (Aspergillus fumigatus) (UniProt Q873Y0)
T1 sequence (whole entry): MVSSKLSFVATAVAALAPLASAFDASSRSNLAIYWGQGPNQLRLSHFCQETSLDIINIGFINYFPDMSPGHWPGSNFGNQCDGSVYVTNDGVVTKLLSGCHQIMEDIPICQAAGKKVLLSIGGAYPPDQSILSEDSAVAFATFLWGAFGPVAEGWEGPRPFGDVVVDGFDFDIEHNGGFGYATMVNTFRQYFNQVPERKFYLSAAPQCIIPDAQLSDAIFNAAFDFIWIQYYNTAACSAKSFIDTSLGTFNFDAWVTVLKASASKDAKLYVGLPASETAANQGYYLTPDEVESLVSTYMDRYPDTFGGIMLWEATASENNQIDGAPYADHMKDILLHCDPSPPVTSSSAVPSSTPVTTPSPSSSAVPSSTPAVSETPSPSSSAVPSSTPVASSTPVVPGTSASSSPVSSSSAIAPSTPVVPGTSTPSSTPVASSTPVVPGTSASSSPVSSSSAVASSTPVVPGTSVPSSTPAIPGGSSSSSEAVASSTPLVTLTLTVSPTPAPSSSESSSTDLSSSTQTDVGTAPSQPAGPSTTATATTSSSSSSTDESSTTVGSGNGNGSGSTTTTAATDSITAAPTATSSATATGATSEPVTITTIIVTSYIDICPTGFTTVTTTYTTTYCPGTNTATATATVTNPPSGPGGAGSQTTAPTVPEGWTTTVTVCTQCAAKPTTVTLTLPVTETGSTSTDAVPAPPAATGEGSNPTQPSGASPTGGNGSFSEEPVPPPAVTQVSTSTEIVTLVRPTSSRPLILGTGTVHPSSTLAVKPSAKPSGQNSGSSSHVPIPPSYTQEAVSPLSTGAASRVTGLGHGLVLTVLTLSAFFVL
Settings: 1 mM

inhibition: inactive
SMILES: Nc1nnc(S(N)(=O)=O)s1

From ChEMBL document CHEMBL1287749, “Acetazolamide-based fungal chitinase inhibitors” (Bioorg Med Chem, 2010)
